The assay has as its system HCV replicon (5-2 Luc replicon-comprising cells). Description: HCV replicon luciferase emission assay. The assay is classed as cell-based. The settings on record: Hepatitis C virus; 5-2 Luc replicon cells, 24 hours with compound, 50% reduction in luciferase emission. An excerpt: The inhibitory activity of certain exemplary compounds of the invention was confirmed using an HCV replicon assay. The HCV replicon can include such features as the HCV 5′ untranslated region including the HCV IRES, the HCV 3′ untranslated region, selected HCV genes encoding HCV polypeptides, selectable markers, and a reporter gene such as luciferase, GFP, etc. In the assay, actively dividing 5-2 Luc replicon-comprising cells (obtained from Rolf Bartenschlager; see Lohmann et al., 1999, Science 285:110-113) were seeded at a density of between about 5,000 and 7,500 cells/well onto 96 well plates (about 90 μl of cells per well) and incubated at 37° C. and 5% CO2 for 24 hours. Then, the test compound (in a volume of about 10 μl) was added to the wells at various concentrations and the cells were incubated for an additional 24 hours before luciferase assay. The media was aspirated from each well and Bright-Glo (Promega, Madison, Wis.) luciferase assay reagents were added to each well according to the manufacturer's instructions. Briefly, the Bright-Glo reagent was diluted 1:1 with PBS and 100 μl of diluted reagent was added to each well. After 5 min of incubation at room temperature, luciferin emission was quantified with a luminometer. In this assay, the amount of test compound that yielded a 50% reduction in luciferase emission (IC50) was determined.

Consider `O=C1c2ccccc2-c2onc3ccc(N4CC4)c1c23` [Compound 2], for which the IC50 came to 800 nM.

Source of the values: patent publication US20050143433A1, “Substituted heterocycles useful for treating HCV infection” (priority 2003, published 2005).
